From US20160015064A1, “COMPOUNDS, COMPOSITIONS, AND METHODS FOR MODULATING SWEET TASTE” (CHROMOCELL CORPORATION, priority 2013, published 2016)
Structures can show the parent of a compound that is named as a salt.

Columns and labels:
Assay type in all cases: in vivo, humans
[1] = tested on: perception of the sweet taste of an aqueous solution of sweetener; assay: Two-alternative forced choice sip and spit method (2AFC); conditions: compound 20 ppm with positive 2AFC
Protocol: The effect of the test compounds on the perception of the sweet taste of an aqueous solution of sweetener in humans was evaluated using a two-alternative forced choice “sip and spit” method (2AFC).
(§1) The aqueous sweetener solutions were prepared by adding, fructose, sucrose or glucose (by weight), to water to achieve the desired concentration.
(§2) Compounds were first prepared as a 500-fold concentrated stock solution in 100% ethanol. These concentrated stocks were then added to the aqueous sweetener solutions to result in a final ethanol concentration of 0.2%. The control (positive and negative) samples were also normalized to 0.2% ethanol. This level of ethanol was not seen to contribute any perceived sweetness.
The 2AFC test used for compound evaluation was a blind and randomized test where taste panelists (n=15) evaluate a pair of sweetener solutions at a time—one sample contains aqueous sweetener solution plus compound (i.e. test) while the other contains aqueous sweetener solution at higher concentration without compound (i.e. positive control). Each test sample was compared against a positive control. For example, if the test sample contained 1× sweetener concentration with compound (e.g. 5% sucrose with compound), the positive control sample contained a 1.1× sweetener concentration (e.g. 5.5% sucrose without compound).
Panelists were instructed not to eat or drink (except water) for at least 1 h before the test. During the test, panelists were instructed to sip each sample, swirl it around their mouth and then expectorate. After tasting each sample in the pair, panelists were instructed to record the sample that is “sweeter” in taste. Panelists cleansed their palates by rinsing with water, eating a cracker and waiting for an interval of about 5 minutes. Each pair was tasted twice. All samples were tasted at ambient temperatures. Data were analyzed using binomial probabilities.
Approximate levels of sweetness enhancement in column 5 of Table 2 were calculated as follows:
Approximate levels of sweetness enhancement=Sweetener concentration of positive control surpassed by the test sample, divided by sweetener concentration for compound-containing sample (e.g. 1.15×=5.75% sucrose/5% sucrose).

[2] = tested on: perception of the sweet taste of an aqueous solution of sweetener; assay: Ranking sip and spit test of sweetness perception (R index); conditions: 5% sucrose test sample, vs negative control
Protocol: The effect of the test compounds on the perception of the sweet taste of an aqueous solution of sweetener in humans was evaluated using a ranking “sip and spit” method.
as §1
Compounds were first prepared as a 500-fold concentrated stock solution in 100% ethanol. These concentrated stocks were then added to the aqueous sweetener solutions to result in a final ethanol concentration of 0.2%. The control (positive and negative) samples were also normalized to 0.2% ethanol.
In the ranking test used for compound evaluation, taste panelists (n=15), rank samples in increasing order of sweetness. One set, comprising of 6 samples, was presented to each panelists at a given time and are asked to rank them in order of increasing sweetness.
Panelists were instructed not to eat or drink (except water) for at least 1 h before the test. During the test, panelists were instructed to sip each sample, swirl it around their mouth and then expectorate. After tasting each set, panelists were instructed to rank the 6 samples within the set from least sweet to most sweet. Where rank 1—is lowest in sweetness and rank 6—is highest in sweetness. Panelists cleansed their palates by rinsing with water, eating a cracker and waiting for an interval of 10 minutes. All samples were tasted at ambient temperatures. Each sample was tasted twice.
R index analysis was utilized to determine the degree of difference between a test and control sample. It indicates the level of discrimination between two samples. […] A positive control sample was used to assess the ability of the panelists to accurately discriminate sweetness perception differences from the negative control.

[3] = tested on: perception of sweet taste, in an aqueous solution; assay: Inherent sweetness assessment, difference from control sip and spit method; conditions: compound 10 ppm in water, no sweetener
Protocol: The aqueous sucrose solutions were prepared by adding, sucrose (by weight), to water to achieve the desired concentration.
as §2, with “water” for “the aqueous sweetener solutions”, “(including positive control)” for “(positive and negative)”
The intrinsic effect of test compounds on the perception of sweet taste, in an aqueous solution, in humans was evaluated using a difference from control “sip and spit” method employing a verbal category scale.
In this method, panelists (n=12) evaluate one pair of samples at a time—one sample contains water plus compound (i.e. test) while the other contains water without compound (i.e. control). Panelists were instructed to first taste the un-blinded control followed by the test sample and asked to rate the size of sweetness difference between the test and control sample, using a 6 point verbal category scale:
Verbal category scale • No difference • Slight difference • Slight/moderate difference • Moderate difference • Moderate/large difference • Very large difference
4 blinded controls comprising of one negative control (0% sucrose) and 3 positive control samples (0.5% sucrose, 1% sucrose and 2% sucrose) were also included as part of the test to evaluate the ability of panelists to rank the difference in sweetness perception between 0.5% sucrose, 1% sucrose and 2% sucrose compared to 0% sucrose control.
Panelists were instructed not to eat or drink (except water) for at least 1 h before the test. During the test, panelists were instructed to sip each sample, swirl it around their mouth and then expectorate. Panelists cleansed their palates by rinsing with water, eating a cracker and waiting for an interval of about 5 minutes. All samples were tasted at ambient temperatures.
The verbal category response for each test sample was converted into an integer numerical value, from 1 to 6 (e.g. no difference=1 and very large difference=6). Total numbers of panelist responses per integer value were plotted as a histogram. An assessment was then made, comparing mean, mode of the numerical value, and the distribution of the histogram plots, for test samples as compared to that of the positive (0.5% sucrose, 1% sucrose and 2% sucrose) and negative control (0% sucrose) sample. Inherent sweetness levels are then correlated to the positive controls as discrete bins: • Bin 1: 0% sucrose • Bin 2: >0% sucrose—<0.5% sucrose • Bin 3: 0.5% sucrose • Bin 4: >0.5% sucrose—<1% sucrose • Bin 5: 1% sucrose • Bin 6: >1% sucrose—<2% sucrose • Bin 7: 2% sucrose

[4] = compound 10 ppm, significant at R index ≧60

SMILES	Fold increase in perceived sweetness ([1]; test sample 4% fructose) [X]	R Index Score [2, 4]	also measured
COc1ccc(C2CC(=O)c3c(O)cc(OCCCC(=O)O)cc3O2)cc1O (centres unmarked) [Compound 4, 4-((5-hydroxy-2-(3-hydroxy-4-methoxyphenyl)-4-oxochroman-7-yl)oxy)butanoic acid]	>1.1	–	Fold increase in perceived sweetness ([1]; test sample 5% sucrose): >1.1X
CCCOc1ccc(C2CC(=O)c3c(O)cc(O)cc3O2)cc1O (centres unmarked) [Compound 5, 5,7-dihydroxy-2-(3-hydroxy-4-propoxyphenyl)chroman-4-one]	>1.1	–	–
COc1ccc(C2CC(=O)c3c(O)cc(C)cc3O2)cc1O (centres unmarked) [Compound 6, 5-hydroxy-2-(3-hydroxy-4-methoxyphenyl)-7-methylchroman-4-one]	–	82	–
O=C1CC(c2ccc(O)cc2)Oc2cccc(O)c21 (centres unmarked) [Compound 7, 5-hydroxy-2-(4-hydroxyphenyl)chroman-4-one]	–	71	–
O=C1CC(c2ccc(O)c(O)c2)Oc2cccc(O)c21 (centres unmarked) [Compound 8, 2-(3,4-dihydroxyphenyl)-5-hydroxychroman-4-one]	–	69	–
O=C1CC(c2cccc(O)c2)Oc2cc(O)cc(O)c21 (centres unmarked) [Compound 10, 5,7-dihydroxy-2-(3-hydroxyphenyl)chroman-4-one]	–	65	–
O=C1CC(c2cccc(O)c2)Oc2cccc(O)c21 (centres unmarked) [Compound 12, 5-hydroxy-2-(3-hydroxyphenyl)chroman-4-one]	–	–	R Index Score ([2]; compound 2.5 ppm): 62
COC(=O)c1cccc(C2CC(=O)c3c(O)cc(O)cc3O2)c1 (centres unmarked) [Compound 13, methyl 3-(5,7-dihydroxy-4-oxochroman-2-yl)benzoate]	–	61	–
COc1ccc(C2CC(=O)c3c(O)cc(OCCCS(=O)(=O)O)cc3O2)cc1O (centres unmarked) [Compound 14, 3-((5-hydroxy-2-(3-hydroxy-4-methoxyphenyl)-4-oxochroman-7-yl)oxy)propane-1-sulfonic acid potassium salt]	>1.1	–	–
COc1ccc(C2CC(=O)c3c(O)cc(F)cc3O2)cc1O (centres unmarked) [Compound 15, 7-fluoro-5-hydroxy-2-(3-hydroxy-4-methoxyphenyl)chroman-4-one]	>1.1	–	Correlated Inherent Sweetness Assessment [3]: 0% sucrose
COc1cc(C2CC(=O)c3c(O)cccc3O2)ccc1C (centres unmarked) [Compound 16]	–	–	Fold increase in perceived sweetness ([1]; test sample 5% sucrose): >1.1X
COc1ccc(C2CC(=O)c3c(Cl)cc(O)cc3O2)cc1O (centres unmarked) [Compound 17]	1.1	–	–
